Values belong to the compound of their own block, whether it stands above or below them.
Columns and labels:
[1] = Crystal form stability: suspension in water stirred 24 hours or storage, solids analyzed by X-ray diffraction; assay type: physicochemical; settings: for Crystalline form after stirring in water: suspension in water, 24 hours, X-ray diffraction
Procedure: Samples of a mixture of crystalline Form I and Form II of Compound (I) were added to water at room temperature or 60° C. to form suspensions, which were stirred for 24 hours, and solids were analyzed by X-ray diffraction.

[2] = Stability of thin layers under high temperature, high humidity, light and ambient conditions, impurity by HPLC; assay type: physicochemical
Procedure: Thin layers (≤5 mm) of crystalline Form I were placed under high temperature (60±2° C.), high humidity (92.5%±2% humidity), light (visible light 4500 lx±500 lx) and ambient temperature (25±2° C., 65%±5% humidity) for 15 days, and samples were analyzed by HPLC on day 5, 9 and 15.

[3] = Hygroscopicity: weight gain at controlled relative humidity; assay type: physicochemical; settings: 25° C.±1° C., 24 hours
[4] = Stability of thin layers under high temperature, high humidity, light and ambient conditions, impurity by HPLC; assay type: physicochemical; settings: day 10, HPLC
[5] = In vivo pharmacokinetics: memantine in plasma after intramuscular administration to rats; settings: memantine measured in rat plasma, memantine solution 17.5 mg/kg
Procedure: Compound (I) was tested in an experiment to determine its in vivo conversion to the active compound memantine.
Analytical LC/MS/MS systems: Agilent 1200 Series vacuum degasser, dual-injection pump, orifice autosampler, column incubator, charged spray ionization (ESI) source, and Agilent G6430 three-stage quadrupole mass spectrometer. The quantitative analysis is performed in the MRM mode, with the following MRM conversion parameters:
Waters XBridge TMC18, 2.1×30 mm, 3.5 μM column; 20 μL of sample was injected in each run. Conditions: The mobile phase included […]+2 mM ammonium formate+0.1% formic acid (A) and methanol+2 mM ammonium formate+0.1% formic acid (B). The flow rate was 0.35 mL/min. The mobile phase gradient is as follows: […]
Additional instruments and reagents included Agilent 6330 Series LC/MS/MS spectrometer equipped with a G1312A Binary Injection Pump, G1367A autosampler and MS/MS Detector for analysis; LC/MS/MS spectrometer with ESI source. Suitable cationic model treatments and MRM conversion were used for each analyte using standard solution for optimal analysis. Waters XBridge TMC18 was used with specifications of 2.1×30 mm, 3.5 μM. The reaction was carried out with […] ammonium formate+0.1% formic acid (A) and methanol+2 mM ammonium formate+0.1% formic acid (B). […]

Structure (SMILES): CC12CC3CC(C)(C1)CC(NC(=O)OCOC(=O)c1ccccc1)(C3)C2 (mixture of isomers) [((((1r,3R,5S,7r)-3,5-dimethyladamantan-1-yl)carbamoyl)oxy)methyl benzoate]
Crystalline form after stirring in water ([1]; 60° C.): completely converted to crystalline Form I
Crystalline form after stirring in water ([1]; room temperature): remained as a mixture of crystalline Form I and Form II

Crystalline form upon long term storage ([1]; long term storage at room temperature): converted to Form I
Structure (SMILES): CC12CC3CC(C)(C1)CC(NC(=O)OCOC(=O)c1ccccc1)(C3)C2 [Crystalline Form II, ((((1r,3R,5S,7r)-3,5-dimethyladamantan-1-yl)carbamoyl)oxy)methyl benzoate]

percentage of impurity ([2]; 60 ± 2° C., day 0, HPLC): 0.04%
percentage of impurity ([2]; 60 ± 2° C., day 5, HPLC): 0.04%
percentage of impurity ([2]; 60 ± 2° C., day 15, HPLC): 0.02%
percentage of impurity ([2]; 92.5% ± 2% humidity, day 0, HPLC): 0.04%
percentage of impurity ([2]; 92.5% ± 2% humidity, day 5, HPLC): 0.06%
percentage of impurity ([2]; 92.5% ± 2% humidity, day 15, HPLC): 0.02%
percentage of impurity ([2]; ambient temperature (25±2° C., 65%±5% humidity), day 0, HPLC): 0.04%
percentage of impurity ([2]; ambient temperature (25±2° C., 65%±5% humidity), day 5, HPLC): 0.04%
percentage of impurity ([2]; ambient temperature (25±2° C., 65%±5% humidity), day 10, HPLC): 0.04%
percentage of impurity ([2]; ambient temperature (25±2° C., 65%±5% humidity), day 15, HPLC): 0.01%
percentage of impurity ([2]; visible light 4500 lx±500 lx, day 0, HPLC): 0.04%
percentage of impurity ([2]; visible light 4500 lx±500 lx, day 5, HPLC): 0.03%
percentage of impurity ([2]; visible light 4500 lx±500 lx, day 15, HPLC): 0.02%
hygroscopicity ([3]; 80% and 92.5% RH): lack of hygroscopicity
weight gain ([3]; saturated KNO3 aqueous solution (92.5%±2% RH)): 0.06%
weight gain ([3]; saturated NH4Cl aqueous solution (80%±2% RH)): 0.03%
percentage of impurity ([4]; 60 ± 2° C.): 0.02%
percentage of impurity ([4]; 92.5% ± 2% humidity): 0.06%
percentage of impurity ([4]; visible light 4500 lx±500 lx): 0.03%
Structure (SMILES): CC12CC3CC(C)(C1)CC(NC(=O)OCOC(=O)c1ccccc1)(C3)C2 [crystalline Form I, ((((1r,3R,5S,7r)-3,5-dimethyladamantan-1-yl)carbamoyl)oxy)methyl benzoate]
chemical change under stress conditions ([2]; high temperature, high humidity, light and ambient temperature for 15 days): did not exhibit significant chemical change

T1/2 [5]: 4 h
Structure (SMILES): CC12CC3CC(C)(C1)CC(N)(C3)C2 [memantine]
